Results from patent US20190112272A1, “SYNTHETIC RETINOIDS FOR USE IN RAR MEDIATED CONDITIONS” (High Force Research Limited, priority 2016, published 2019).

Tests used:
[1] = tested on: retinoic acid response element (RARE) driven LacZ reporter in Sil-15 reporter cells (F9-RARE-lacZ cells); test: RARE-driven LacZ reporter gene assay (genomic response, Sil-15 reporter cells, X-Gal assay); format: cell-based; conditions: for activation of transcription via a RARE (genomic response): Sil-15 reporter cells, result in words
From the text: (§1) The action of retinoic acid in the brain, the relative importance of genomic versus non-genomic activity of retinoic acid was investigated by determining whether some RAR ligands preferentially activated one pathway. Retinoic acid (FIG. 1) was used as a compound known to induce both genomic and non-genomic pathways of retinoic acid signalling. We measured its relative activity as an inducer of gene transcription using a construct in which the promoter element to which the retinoic acid receptor binds (retinoic acid response element, RARE) drives a LacZ reporter (genomic response). This was compared to a cell based assay to measure induction of ERK 1/2 phosphorylation (non-genomic response).
Sil-15 reporter cells (also called F9-RARE-lacZ cells) were used in the X-Gal Assay. This cell line was derived from a stable transfection of F9 teratocarcinoma cells with a plasmid containing the LacZ gene under the control of a promoter linked to a retinoic acid response element (RARE). These cells were used to visually detect and semi-quantify the transcriptional activity of retinoic acid and other retinoids by monitoring β-galactosidase activity produced by the reporter cells in response to the retinoic acid/retinoids in the surrounding medium.
Sil-15 cells were plated in a 0.1% gelatin-coated 96-well plate and grown to about 85-90% confluence in Dulbecco's modified Eagle's medium (DMEM) containing 10% foetal calf serum and 0.8 mg/ml G418 sulfate for selection.
Serial dilutions of retinoids were prepared from the stock solutions under a red/orange light. A standard curve of RA was included in the experiment as a positive control. The RA/chemicals dilutions were added above the seeded Sil-15 cells in the 96-well plate and then the plate was wrapped with aluminium foil and incubated overnight in a humid atmosphere containing 5% CO2 at 37° C. All the concentrations for the RA and the two chemicals were tested in triplicates.
The next day, Sil-15 cells were washed twice with 1× PBS, fixed with 100 μl per well of 1% glutaraldehyde fixation solution for 15 minutes, washed again two times with 1× PBS and finally β-galactosidase activity was visualized by adding 100 μl of a freshly prepared X-Gal developing solution (5-bromo-4-chloro-3-indolyl-β-d-galactopyranoside) to each well. The plate was incubated overnight at 37° C. in 5% CO2. The plate was read on an Emax microplate reader at 650 nm.

ERK 1/2 phosphorylation = test: Induction of ERK 1/2 phosphorylation (non-genomic response); format: cell-based; conditions: for kinase activity (ERK 1/2 phosphorylation, non-genomic response): result in words
Procedure: (§2) (b) The influence of a low concentration of retinoids on number of neurites from SH-SS5Y cells was determined.
as §1

[2] = biological target: T1, Cellular Retinoic Acid Binding Protein II (CRABPII) (Homo sapiens, UniProt P29373); test: Fluorometric competitive binding titration of DC271 in CRABPII
T1 sequence (P29373 1-138): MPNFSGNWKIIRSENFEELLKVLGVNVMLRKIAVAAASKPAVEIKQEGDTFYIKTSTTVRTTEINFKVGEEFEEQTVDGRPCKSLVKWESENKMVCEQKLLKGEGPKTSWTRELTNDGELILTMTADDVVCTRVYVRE
From the text: A number of highly fluorescent analogues of retinoic acid (ATRA) have been synthesised at Durham University for use in a variety of imaging and biophysical studies. The fluorescence emission of these fluorescent retinoids, including DC271, is highly solvatochromatic and the intensity of this emission is strongly dependent on environment. Therefore, in a nonpolar solvent, the emission is blue shifted (425-500 nm) and intense, while in a polar solvent the emission is red shifted (500-600 nm) and weak (severely quenched in water). […] When EC23® is titrated against CRABPII-DC271 complex the reduction in fluorescence emission intensity can be used to produce a competition binding curve allowing the estimation of the Ki (inhibition constant) of the competition of EC23® for DC271 bound to CRABPII. […] For the competition with EC23® a solution of [DC271] =49.8 nM and [CRABPII]=75 nM was prepared in PBS buffer (20 mM K2HPO4, 100mM KCl, pH 7.4 buffer) and the fluorescence intensity was measured at 450 nm with excitation at 380 nm. […] The emission intensity of DC271 was plotted against Log[EC23], and a one site competitive binding model was fit to the resultant data (FIG. 5). This provided an estimation of the Log Ki of the competitive binding reaction (Table 1).

SH-SY5Y cells [3] = test: Neurite outgrowth screening assay in SH-SY5Y cells; format: cell-based; conditions: for effect on number of neurites compared to control: 10 nM retinoid, SH-SY5Y cells
Procedure: as §2

SH-SY5Y cells [4] = test: Cell number / cell survival of SH-SY5Y cells; format: cell-based; conditions: 10 nM, compared to same concentration of retinoic acid
[5] = Induction of own catabolism in vivo; conditions: unlike retinoic acid
Photostability = format: physicochemical

Compound: COCCOCOc1cc2ccc(-c3ccc(C(=O)O)cc3)cc2cc1C12CC3CC(CC(C3)C1)C2 [CD2665]
- activation of transcription via a RARE (genomic response) [1]: shows no sign of activity to regulate gene expression via a RARE
- kinase activity (ERK 1/2 phosphorylation, non-genomic response) (ERK 1/2 phosphorylation): has significant kinase activity

Compound: CC(C)N1CCC(C)(C)c2cc(C#Cc3ccc(C(=O)O)cc3)ccc21 [DC271]
- Kd ([2]; direct binding of the fluorescent retinoid, read-out: dissociation constant against CRABPII, Kd): 49.1 ± 2.6 nM

Compound: CC1=C(/C=C/C(C)=C/C=C/C(C)=C/C(=O)O)C(C)(C)CCC1 [ATRA, all-trans-retinoic acid]
- effect on number of neurites compared to control (SH-SY5Y cells [3]): no significant effect
- neurite outgrowth (SH-SY5Y cells [3]; SH-SY5Y cell line, preliminary results, result in words): promotes neurite outgrowth
- EC50 ([1]; RARE-LacZ reporter, 95% confidence interval 90.7 pM to 391.4 pM, read-out: mean EC50, genomic activation): 0.188 nM
- activation of transcription via a RARE (genomic response) [1]: induces gene transcription of a RAR driven reporter gene
- EC50 (ERK 1/2 phosphorylation; 95% confidence interval 32.8 nM to 138.8 nM, read-out: mean EC50, ERK 1/2 kinase phosphorylation): 67.5 nM

Compound: C/C(=C\c1ccc(C(=O)O)cc1)c1ccc2c(c1)C(C)(C)CCC2(C)C [TTNPB]
- activation of transcription via a RARE (genomic response) [1]: can potently activate transcription via a RARE
- kinase activity (ERK 1/2 phosphorylation, non-genomic response) (ERK 1/2 phosphorylation): does not activate kinase activity

Compound: CC1(C)CCC(C)(C)c2cc(C#Cc3ccc(C(=O)O)cc3)ccc21 [EC23®, 4-(5,5,8,8-tetramethyl-5,6,7,8-tetrahydro-naphthalen-2-ylethynyl) benzoic acid]
- number of SH-SY5Y cells (SH-SY5Y cells [4]): greatly enhances the number of SH-SY5Y cells
- effect on number of neurites compared to control (SH-SY5Y cells [3]): strong and significant effect
- fold greater activity than retinoic acid (ATRA) in transactivation of a RAR driven reporter gene ([1]; relative to retinoic acid (ATRA)): up to 500 fold
- induction of its own catabolism in vivo [5]: does not induce its own catabolism in vivo
- capacity to induce ERK phosphorylation (western blotting of phosphorylated ERK) (ERK 1/2 phosphorylation; 10 μM, after 20 minutes, versus same concentration of retinoic acid): much greater in its capacity to induce ERK phosphorylation than the same concentration of retinoic acid
- photostability (Photostability): photostable
- Ki ([2]; competition with DC271 49.8 nM, CRABPII 75 nM, PBS pH 7.4, one site model): 3.16 nM
